Where two headings read alike, the source gives them in different places.
What was measured:
human GAL1 receptor = target: T1, human GAL1 receptor (Homo sapiens, UniProt P47211); test: Radioligand binding at cloned human GAL1 receptor
T1 construct: expressed in transfected cells
T1 sequence (P47211 1-349): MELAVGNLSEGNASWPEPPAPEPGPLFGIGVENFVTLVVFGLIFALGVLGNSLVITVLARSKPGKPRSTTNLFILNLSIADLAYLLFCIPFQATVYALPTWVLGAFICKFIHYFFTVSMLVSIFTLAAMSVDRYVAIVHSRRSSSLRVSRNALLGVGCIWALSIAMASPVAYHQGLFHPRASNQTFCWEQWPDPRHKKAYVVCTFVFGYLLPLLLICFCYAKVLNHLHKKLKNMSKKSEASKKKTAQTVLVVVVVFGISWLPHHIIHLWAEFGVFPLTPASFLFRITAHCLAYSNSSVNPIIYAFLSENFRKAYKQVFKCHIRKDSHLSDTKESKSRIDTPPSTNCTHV
Protocol: The binding properties of the pyrimidines of the present invention were evaluated at the cloned human galanin receptors, GAL1, GAL2, and GAL3, using protocols described herein. […]
LM(tk-) cells were stably transfected with the human GAL1 or GAL3 receptor. CHO cells were stably transfected with the human GAL2 receptor.
cDNAs for the human and rat GAL1, and human and rat GAL3 receptors were transfected with a G-418 resistant gene into the mouse fibroblast LM(tk-) cell line by a calcium phosphate transfection method (Cullen, 1987). Stably transfected cells were selected with G-418. Human and rat GAL2 receptors were similarly transfected into CHO cells.
Membranes were harvested from stably transfected LM(tk-) cells. Adherent cells were washed twice in ice-cold phosphate buffered saline (138 mM NaCl, 8.1 mM Na2HPO4, 2.5 mM KCl, 1.2 mM KH2PO4, 0.9 mM CaCl2, 0.5 mM MgCl2, pH 7.4) and lysed by sonication in ice-cold sonication buffer (20 mM Tris-HCl, 5 mM EDTA, pH 7.7). Large particles and debris were cleared by low speed centrifugation (200 x g, 5 min, 4°C). Membranes were collected from the supernatant fraction by centrifugation (32,000 x g, 18 min, 4°C), washed with ice-cold hypotonic buffer, and collected again by centrifugation (32,000 x g, 18 min, 4°C). The final membrane pellet was resuspended by sonication into a small volume of ice-cold binding buffer (-1 ml for every 5 plates: 10 mM NaCl, 20 mM HEPES, 0.22 mM KH2PO4, 1.26 mM CaCl2, 0.81 mM MgSO4, pH 7.4). Protein concentration was measured by the Bradford method (Bradford, 1976) using Bio-Rad Reagent, with bovine serum albumin as a standard. Membranes were held on ice for up to one hour and used fresh, or flash frozen and stored in liquid nitrogen. Membranes were prepared similarly from CHO cells.
Galanin Recentors: Binding assays were performed according to the following published methods: human GAL3 (PCT International Publication No. WO 98/15570), human GAL1 (PCT International Publication No. WO 95/2260), human GAL2 (PCT International Publication No. WO 97/26853).
(§1) Binding data were analyzed using nonlinear regression and statistical techniques available in the GraphPAD Prism package (San Diego, CA). Enzymatic assay data were derived from a standard curve of reference compound data.

human 5HT1A receptor = target: T2, human 5HT1A receptor (Homo sapiens, UniProt P08908); test: Radioligand binding, 5-HT1A receptor (3H-8-OH-DPAT)
T2 construct: expressed in transfected cells; host or cells: COS-7 cells, transient (pCEXV-3 vector)
T2 sequence (P08908 1-422): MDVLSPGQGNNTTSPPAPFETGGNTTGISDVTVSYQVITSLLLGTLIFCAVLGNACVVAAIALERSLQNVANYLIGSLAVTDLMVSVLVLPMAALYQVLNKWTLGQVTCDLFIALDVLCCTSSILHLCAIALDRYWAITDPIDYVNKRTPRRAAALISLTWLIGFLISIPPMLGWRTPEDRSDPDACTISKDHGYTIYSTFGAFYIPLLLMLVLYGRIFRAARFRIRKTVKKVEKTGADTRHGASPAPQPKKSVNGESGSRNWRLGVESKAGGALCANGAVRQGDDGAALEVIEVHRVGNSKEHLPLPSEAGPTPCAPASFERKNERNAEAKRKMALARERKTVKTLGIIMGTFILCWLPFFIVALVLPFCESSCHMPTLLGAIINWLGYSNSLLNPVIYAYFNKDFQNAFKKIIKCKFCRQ
Protocol: 5-HT1A Receptor: The cDNA corresponding to the 5-HT1A receptor open reading frames and variable non-coding 5'-and 3'-regions, was cloned into the eukaryotic expression vector pCEXV-3. These constructs were transfected transiently into COS-7 cells by the DEAE-dextran method (Cullen, 1987), and harvested after 72 hours. Radioligand binding assays were performed as described above for the 5-HT2A receptor, except that ^3H-8-OH-DPAT was used as the radioligand and nonspecific binding was determined by the addition of 10 µM mianserin.
as §1

NE transporter [1] = target: NE transporter (Rattus norvegicus, UniProt Q63380); test: Binding at native NE transporter; details: Table 7; native transporter, head prints r (rat); read-out: rNE Uptk Ki
Protocol: (§2) The binding properties of the compounds of the present invention were evaluated at one or more cloned receptors or native, tissue-derived transporters, using protocols described below.
(§3) The methods to determine binding affinity at native transporters are described in the following publications: 5HT transporter and NE transporter (Owens et al., 1997), and DA transporter (Javitch et al, 1984).
as §1

NE transporter [2] = test: Binding at native NE transporter; details: Table 8; Ki rNE Uptk divided by Ki hGAL3
Protocol: as §2, §3, §1

[3] = pyrimidines, read-out: Ki GalR1
[4] = Table 8; Ki h5HT1A divided by Ki hGAL3

Chain of NE transporter (Rattus norvegicus, UniProt Q63380) (Q63380 1-617): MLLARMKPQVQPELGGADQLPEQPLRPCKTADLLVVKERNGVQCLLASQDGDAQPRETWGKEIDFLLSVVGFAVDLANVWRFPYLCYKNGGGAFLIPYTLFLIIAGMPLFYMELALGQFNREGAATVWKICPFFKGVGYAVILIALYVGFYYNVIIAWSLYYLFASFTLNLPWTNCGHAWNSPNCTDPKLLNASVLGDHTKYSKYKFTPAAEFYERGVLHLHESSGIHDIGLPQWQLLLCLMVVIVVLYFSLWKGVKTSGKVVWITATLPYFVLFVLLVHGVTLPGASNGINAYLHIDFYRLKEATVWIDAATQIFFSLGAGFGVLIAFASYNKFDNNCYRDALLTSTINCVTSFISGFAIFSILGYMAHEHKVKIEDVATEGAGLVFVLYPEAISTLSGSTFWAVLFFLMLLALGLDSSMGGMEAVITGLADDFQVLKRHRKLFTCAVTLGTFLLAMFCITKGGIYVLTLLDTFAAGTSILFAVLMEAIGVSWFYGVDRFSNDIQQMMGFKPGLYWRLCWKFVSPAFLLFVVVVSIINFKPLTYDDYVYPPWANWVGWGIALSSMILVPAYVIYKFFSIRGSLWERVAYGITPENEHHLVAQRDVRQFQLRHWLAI

Structure (SMILES) | Ki (human GAL1 receptor; [3]) [µM] | Ki (human 5HT1A receptor; Table 7; read-out: h5HT1A Ki) [µM] | selectivity ratio h5HT1A (human 5HT1A receptor; [4]) | Ki (NE transporter [1]) [µM] | selectivity ratio rNE Uptk (NE transporter [2]) | Ki (human GAL1 receptor; indolones, read-out: Ki GalR1) [µM] | Ki (human GAL1 receptor; read-out: Ki GalR1, pyrimidines) [µM] | Ki (human 5HT1A receptor; read-out: h5HT1A Ki; Table 7) [µM]
Cc1ccc(Nc2cc(N3CCCCC3)nc(N(C)CCc3ccccc3)n2)cc1 [Example 22] | 0.442 | 9.71 | >100 | 13.1 | >100 |  |  | 
O=C1C(=Nc2ccc(Br)cc2)c2ccccc2N1c1ccccc1 [Example 98, 3-[(4-BROMOPHENYL)IMINO]-1-PHENYL-1,3-DIHYDRO-2H-INDOL-2-ONE] |  | 24.6 | >100 | 5.5 | >100 | > 10 |  | 
O=C1C(=Nc2ccc(C(F)(F)F)cc2)c2ccccc2N1c1ccccc1 [Example 95, 1-PHENYL-3-[[4-(TRIFLUOROMETHYL)PHENYL]IMINO]-1,3-DIHYDRO-2H-INDOL-2-ONE] |  | 28.3 | >100 | 6.1 | >100 | > 10 |  | 
CN(C)c1cc(Nc2ccc(Cl)c(Cl)c2)nc(Nc2ccccc2)n1 [Example 60] | > 5 | 33.7 | >100 | 46.1 | >100 |  |  | 
CN(CCc1c[nH]c2ccccc12)c1nc(Nc2ccc(F)c(F)c2)cc(N2CCCCC2)n1 [Example 15] | 2.43 | 5.1 | >30 |  | >100 |  |  | 
Cc1ccc(Nc2cc(N3CCCCC3)nc(N(C)CCc3c[nH]c4ccccc34)n2)cc1 [Example 11] |  | 4.68 | >30 |  | >100 |  |  | 
O=C1C(=Nc2cc(Cl)cc(Cl)c2)c2ccccc2N1c1ccccc1 [Example 103, 3-[(3,5-DICHLOROPHENYL)IMINO]-1-PHENYL-1,3-DIHYDRO-2H-INDOL-2-ONE] |  |  |  |  |  | > 10 |  | 
COc1cccc(Nc2cc(N3CCCCC3)nc(N(C)CCc3c[nH]c4ccccc34)n2)c1 [Example 17] |  | 3.48 | >30 | 18.3 | >100 |  |  | 
Cc1ccc(Nc2cc(N(C)C)nc(N(C)CCc3c[nH]c4ccccc34)n2)cc1 [Example 77] | 3.8 | 5.47 | >30 | 28.1 | >100 |  |  | 
O=C1C(=Nc2cccc(C(F)(F)F)c2)c2ccccc2N1c1ccccc1 [Example 92, 1-PHENYL-3- [[3-(TRIFLUOROMETHYL)PHENYL]IMINO]-1,3-DIHYDRO-2H-INDOL-2-ONE] |  |  | >100 |  |  |  |  | 
O=C1C(=Nc2cccc(Cl)c2)c2ccccc2N1c1ccccc1 [Example 94, 3-[(3-CHLOROPHENYL)IMINO]-1-PHENYL-1,3-DIHYDRO-2H-INDOL-2-ONE] |  | > 50 | >100 | 4.88 | >30 | > 10 |  | 
COC[C@@H]1[C@@H](c2ccccc2)OCCN1c1nc(Nc2ccc(C)cc2)cc(N2CCCCC2)n1 [Example 49] |  |  | >100 |  |  |  | > 5 | 29.2
O=C1C(=Nc2ccc(Cl)cc2)c2ccccc2N1c1ccccc1 [Example 97, 3-[(4-CHLOROPHENYL)IMINO]-1-PHENYL-1,3-DIHYDRO-2H-INDOL-2-ONE] |  | > 50 | >100 | 4.41 | >30 | > 10 |  | 
Cc1ccc(Nc2cc(N3CCCCC3)nc(N3CCN(c4ncccc4C(F)(F)F)CC3)n2)cc1 [Example 34] | 0.912 |  | >100 |  | >100 |  |  | 

Source: patent EP2140864A2 (H. Lundbeck A/S, priority 2001, dated 2002)
